Assay results: doi:10.1101/2023.12.19.572336, “Structure of an insect gustatory receptor” (bioRxiv, 2023)

Target: T1, Bombyx mori Gr9 (BmGr9) (Bombyx mori, UniProt B3GTD7)
T1 construct: N-terminally TwinStrep-tagged BmGr9, homotetramer; residues 232–269 and the N and C termini (15 and 5 residues) disordered
T1 sequence (B3GTD7 1-449): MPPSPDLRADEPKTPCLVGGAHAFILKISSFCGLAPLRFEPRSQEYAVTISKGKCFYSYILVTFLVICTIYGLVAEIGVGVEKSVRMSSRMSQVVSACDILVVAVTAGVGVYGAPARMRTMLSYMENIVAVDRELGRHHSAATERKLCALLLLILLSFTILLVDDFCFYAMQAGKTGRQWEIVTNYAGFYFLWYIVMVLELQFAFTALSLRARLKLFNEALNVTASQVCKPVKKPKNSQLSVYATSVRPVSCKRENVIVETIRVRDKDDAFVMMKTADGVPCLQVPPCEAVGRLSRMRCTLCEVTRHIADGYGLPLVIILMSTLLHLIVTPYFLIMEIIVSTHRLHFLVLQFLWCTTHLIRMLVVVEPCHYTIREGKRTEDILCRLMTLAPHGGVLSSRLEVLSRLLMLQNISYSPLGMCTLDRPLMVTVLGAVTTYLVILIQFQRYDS
Test: cryo-EM of protein purified with […] D-fructose ([…] Å); EC50 by two-electrode voltage clamp in Xenopus oocytes
Assay type: cell-based

Question: How did the EC50 turn out when OCC1(O)OC[C@@H](O)[C@@H](O)[C@@H]1O (stereo partly drawn) [D-fructose] was run?
Answer: 22 mM
